Test results as given in patent US11964949B2, “Substituted phenyloxazolidinones for antimicrobial therapy” (priority 2015, dated 2024).
≈ marks a conversion by molar mass, not a printed value. Where two headings read alike, the source gives them in different places.

Tests used:
[1] = test system: Mycobacterium tuberculosis H37Rv; test: In vitro assay for antimicrobial susceptibility (microplate Alamar blue, MIC); assay type: cell-based; details: for MIC: Mycobacterium tuberculosis, read-out: MIC (μg/mL) against H37Rv
[2] = test system: mitochondrial protein synthesis (MPS) in H9C2 cells; test: In vitro assay for MPS inhibition (COX-1 / SDH-A ELISA in H9C2 cells); assay type: cell-based, rat; details: Rattus norvegicus, read-out: IC50 (μM) MPS inhibition
[3] = M. tuberculosis H37Rv, 7H9 broth, Alamar blue
[4] = 120 h, H9C2 cells, 5 days incubation

## CC(=O)NC[C@H]1CN(c2ccc(N3C4CSCC3C4)c(F)c2)C(=O)O1 [OTB-227, N-(((5S)-3-(4-(3-Thia-6-azabicyclo[3.1.1]heptan-6-yl)-3-fluorophenyl)-2-oxo-oxazolidin-5-yl)methyl)acetamide]
[1]; H37RV
  MIC: 0.889 µg/mL (≈ 2.43 µM)
[2]; H9c2, 120 h
  IC50: 15.2 µM

## O=C1O[C@@H](Cn2ccnn2)CN1c1ccc(N2CC3(C2)C[S+]([O-])C3)c(F)c1 [OTB-247]
[1]; [3]
  MIC: 1.2 to 1.4 µg/mL (≈ 3.07 to 3.58 µM)
[2]; [4]
  IC50: 10 µM

## CCCC(=O)NC[C@H]1CN(c2cc(F)c(N3C4CCC3C[S+]([O-])C4)c(F)c2)C(=O)O1 (some centres unmarked) [OBD-242]
[1]; H37RV
  MIC: 0.61 µg/mL (≈ 1.38 µM)
[2]; H9c2, 120 h
  IC50: > 100 µM

## O=C(NC[C@H]1CN(c2ccc(N3CCCSCCC3)c(F)c2)C(=O)O1)c1cccs1 [OTB-118, (S)—N-[[3-(3-Fluoro-4-(1,5-thiazocan-5-yl)phenyl)-2-oxo-oxazolidin-5-yl]methyl]thiophene-2-carboxamide]
[1]; [3]
  MIC: 1.55 µg/mL (≈ 3.44 µM)

## CCCC(=O)NC[C@H]1CN(c2ccc(N3CCCS(=O)(=O)CC3)c(F)c2)C(=O)O1 [OBD-007, (S)—N-((3-(4-(1,1-Dioxido-1,4-thiazepan-4-yl)-3-fluorophenyl)-2-oxooxazolidin-5-yl)methyl)butyramide]
[1]; [3]
  MIC: 0.46 µg/mL (≈ 1.08 µM)
[2]; [4]
  IC50: 19.8 µM

## CC(C)(C)C(=O)NC[C@H]1CN(c2ccc(N3CCCSCCC3)c(F)c2)C(=O)O1 [OTB-121, (S)—N-[[3-(3-Fluoro-4-(1,5-thiazocan-5-yl)phenyl)-2-oxo-oxazolidin-5-yl]methyl]pivalamide]
[1]; [3]
  MIC: 2.79 µg/mL (≈ 6.58 µM)
[2]; [4]
  IC50: 17.6 µM

## NC[C@H]1CN(c2ccc(N3C4CCC3C[S+]([O-])C4)c(F)c2)C(=O)O1 (some centres unmarked) [OBD-085]
[1]; H37RV
  MIC: 1.1 µg/mL (≈ 3.11 µM)
[2]; H9c2, 120 h
  IC50: > 100 µM

## O=C1O[C@@H](CO)CN1c1cc(F)c(N2CC3CCC(C2)O3)c(F)c1 [OBD-114, 3-(4-(8-oxa-3-aza-bicyclo[3.2.1]octan-3-yl)-3,5-difluorophenyl)-5-(hydroxymethyl)oxazolidin-2-one]
[1]; [3]
  MIC: 1.7 µg/mL (≈ 5 µM)
[2]; [4]
  IC50: > 100 µM

## O=C1O[C@@H](CO)CN1c1ccc(N2CC3(COC3)C2)c(F)c1 [OTB-201, (R)-3-(3-Fluoro-4-(2-oxa-6-azaspiro[3.3]heptan-6-yl)phenyl)-5-(hydroxymethyl)oxazolidin-2-one]
[1]; [3]
  MIC: 16 µg/mL (≈ 51.9 µM)

## O=C(NC[C@H]1CN(c2cc(F)c(N3CC4(CSC4)C3)c(F)c2)C(=O)O1)C1CCC1 [OTB-244, (S)—N-((3-(3,5-Difluoro-4-(2-thia-6-azaspiro[3.3]heptan-6-yl)phenyl)-2-oxo-oxazolidin-5-yl)methyl)cyclobutanecarboxamide]
[1]; [3]
  MIC: 0.02 to 0.6 µg/mL (≈ 0.0472 to 1.42 µM)

## O=C(NC[C@H]1CN(c2cc(F)c(N3CCCSCC3)c(F)c2)C(=O)O1)C1CCC1 [OTB-409]
[1]; [3]
  MIC: 0.477 µg/mL (≈ 1.12 µM)
[2]; [4]
  IC50: 8.51 µM

## O=C(NC[C@H]1CN(c2ccc(N3CC4(COC4)C3)c(F)c2)C(=O)O1)C1CCC1 [OTB-239, (S)—N-((3-(3-Fluoro-4-(2-oxa-6-azaspiro[3.3]heptan-6-yl)phenyl)-2-oxo-oxazolidin-5-yl)methyl)cyclobutanecarboxamide]
[1]; [3]
  MIC: 2.1 to 3.8 µg/mL (≈ 5.39 to 9.76 µM)
[2]; [4]
  IC50: 19 to 67 µM

## O=C1O[C@@H](Cn2cncn2)CN1c1ccc(N2CCC[S+]([O-])CCC2)c(F)c1 [OBD-009, (R)-5-((1H-1,2,4-Triazol-1-yl)methyl)-3-(3-fluoro-4-(1-oxido-1,5-thiazocan-5-yl)phenyl)oxazolidin-2-one]
[1]; [3]
  MIC: 21.1 µg/mL (≈ 51.7 µM)
[2]; [4]
  IC50: > 100 µM

## CCCC(=O)NC[C@H]1CN(c2ccc(N3CCC[S+]([O-])CCC3)c(F)c2)C(=O)O1 [OBD-004, (S)—N-((3-(3-Fluoro-4-(1-oxido-1,5-thiazocan-5-yl)phenyl)-2-oxooxazolidin-5-yl)methyl)butyramide]
[1]; [3]
  MIC: 3.34 µg/mL (≈ 7.84 µM)
[2]; [4]
  IC50: 15.8 µM

## O=C1O[C@@H](Cn2cncn2)CN1c1ccc(N2CCCSCCC2)c(F)c1 [OBD-008, (R)-5-((1H-1,2,4-triazol-1-yl)methyl)-3-(3-fluoro-4-(1,5-thiazocan-5-yl)phenyl)oxazolidin-2-one]
[1]; [3]
  MIC: 3.51 µg/mL (≈ 8.97 µM)
[2]; [4]
  IC50: 29.9 µM

## O=C(NC[C@H]1CN(c2ccc(N3CC4(COC4)C3)c(F)c2)C(=O)O1)c1ccco1 [OTB-205, (S)—N-((3-(3-Fluoro-4-(2-oxa-6-azaspiro[3.3]heptan-6-yl)phenyl)-2-oxo-oxazolidin-5-yl)methyl)furan-2-carboxamide]
[1]; [3]
  MIC: 3.9 µg/mL (≈ 9.72 µM)

## COC(=O)NC[C@H]1CN(c2ccc(N3CC4(COC4)C3)c(F)c2)C(=O)O1 [OTB-223, Methyl (S)-((3-(3-fluoro-4-(2-oxa-6-azaspiro[3.3]heptan-6-yl)phenyl)-2-oxo-oxazolidin-5-yl)methyl)carbamate]
[1]; [3]
  MIC: 0.8 to 2.6 µg/mL (≈ 2.19 to 7.12 µM)

## CNC[C@H]1CN(c2ccc(N3CCCSCC3)c(F)c2)C(=O)O1 [OTB-109, (S)-3-[3-Fluoro-4-(1,4-thiazepan-4-yl)phenyl]-5-[(methylamino)methyl]oxazolidin-2-one]
[1]; [3]
  MIC: 32 µg/mL (≈ 94.3 µM)

## O=C(NC[C@H]1CN(c2ccc(N3CCCSCC3)c(F)c2)C(=O)O1)C1CCC1 [OTB-414, (S)—N-((3-(3-Fluoro-4-(1,4-thiazepan-4-yl)phenyl)-2-oxooxazolidin-5-yl)methyl)cyclobutanecarboxamide]
[1]; [3]
  MIC: 0.171 µg/mL (≈ 0.42 µM)

## O=C(NC[C@H]1CN(c2ccc(N3CC4(CSC4)C3)c(F)c2)C(=O)O1)C1CC1 [OTB-249]
[1]; [3]
  MIC: 0.06 to 0.15 µg/mL (≈ 0.153 to 0.383 µM)

## CC(=O)NC[C@H]1CN(c2ccc(N3[C@@H]4CC[C@H]3C[S+]([O-])C4)c(F)c2)C(=O)O1 (stereo partly drawn) [OTB-503, N-(((5S)-3-(3-Fluoro-4-((1R,5S)-3-oxido-3-thia-8-azabicyclo[3.2.1]octan-8-yl)phenyl)-2-oxo-oxazolidin-5-yl)methyl)acetamide]
[1]; H37RV
  MIC: 0.2 to 1.3 µg/mL (≈ 0.506 to 3.29 µM)

## O=C1O[C@@H](Cn2cncn2)CN1c1ccc(N2[C@@H]3CC[C@H]2C[S+]([O-])C3)c(F)c1 (stereo partly drawn) [OBD-018, (5R)-5-((1H-1,2,4-Triazol-1-yl)methyl)-3-(3-fluoro-4-((1R,5S)-3-oxido-3-thia-8-azabicyclo[3.2.1]octan-8-yl)phenyl)oxazolidin-2-one]
[1]; H37RV
  MIC: > 32 µg/mL

## O=C1O[C@@H](Cn2cncn2)CN1c1ccc(N2C3CCC2CSC3)c(F)c1 [OBD-021, (5R)-5-((1H-1,2,4-triazol-1-yl)methyl)-3-(4-(3-thia-8-aza-bicyclo[3.2.1]octan-8-yl)-3-fluorophenyl)oxazolidin-2-one]
[1]; H37RV
  MIC: 27.5 µg/mL (≈ 70.5 µM)

## O=C1O[C@@H](Cn2ccnn2)CN1c1cc(F)c(N2CC3(COC3)C2)c(F)c1 [OTB-234, (R)-5-((1H-1,2,3-Triazol-1-yl)methyl)-3-(3,5-difluoro-4-(2-oxa-6-azaspiro[3.3]heptan-6-yl)phenyl)oxazolidin-2-one]
[1]; [3]
  MIC: 0.39 to 4 µg/mL (≈ 1.03 to 10.6 µM)

## O=C(NC[C@H]1CN(c2ccc(N3CC4(COC4)C3)c(F)c2)C(=O)O1)c1cccs1 [OTB-206, (S)—N-((3-(3-Fluoro-4-(2-oxa-6-azaspiro[3.3]heptan-6-yl)phenyl)-2-oxo-oxazolidin-5-yl)methyl)thiophene-2-carboxamide]
[1]; [3]
  MIC: 2.8 µg/mL (≈ 6.71 µM)

## CS(=O)(=O)NC[C@H]1CN(c2ccc(N3[C@@H]4CC[C@H]3CSC4)c(F)c2)C(=O)O1 [OTB-236, N—(((R)-3-(4-((1R,5S)-3-Thia-8-azabicyclo[3.2.1]octan-8-yl)-3-fluorophenyl)-2-oxo-oxazolidin-5-yl)methyl)methanesulfonamide]
[1]; H37RV
  MIC: 14.3 µg/mL (≈ 34.3 µM)

## (R)-5-((1H-1,2,3-Triazol-1-yl)methyl)-3-(3-fluoro-4-(2-oxa-6-azaspiro[3.3]heptan-6-yl)phenyl)oxazolidin-2-one [OTB-203]
[1]; [3]
  MIC (μg/mL) against H37Rv: >32 µg/mL

## CC(=O)NC[C@H]1CN(c2cc(F)c(N3CCCSCCC3)c(F)c2)C(=O)O1 [OBD-027]
[1]; H37RV
  MIC: 0.3 µg/mL (≈ 0.751 µM)

## CC(=O)NC[C@H]1CN(c2ccc(N3CCC[S+]([O-])CCC3)c(F)c2)C(=O)O1 [OTB-124, (S)—N-[[3-(3-Fluoro-4-(1-oxido-1,5-thiazocan-5-yl)phenyl)-2-oxo-oxazolidin-5-yl]methyl]acetamide]
[1]; [3]
  MIC: 0.26 to 1.4 µg/mL (≈ 0.654 to 3.52 µM)

## O=C1O[C@@H](CO)CN1c1ccc(N2[C@@H]3CC[C@H]2CSC3)c(F)c1 [OTB-501, (R)-3-(4-((1R,5S)-3-Thia-8-azabicyclo[3.2.1]octan-8-yl)-3-fluorophenyl)-5-(hydroxymethyl)oxazolidin-2-one]
[1]; H37RV
  MIC: 4.5 µg/mL (≈ 13.3 µM)

## O=C(NC[C@H]1CN(c2ccc(N3CC4(CSC4)C3)c(F)c2)C(=O)O1)C1CCC1 [OTB-250]
[1]; [3]
  MIC: 0.06 µg/mL (≈ 0.148 µM)

## O=C1O[C@@H](Cn2ccnn2)CN1c1cc(F)c(N2[C@@H]3CC[C@H]2CSC3)c(F)c1 [OTB-511, (R)-5-((1H-1,2,3-Triazol-1-yl)methyl)-3-(4-((1R,5S)-3-thia-8-azabicyclo[3.2.1]octan-8-yl)-3,5-difluorophenyl)oxazolidin-2-one]
[1]; H37RV
  MIC: 0.06 to 0.2 µg/mL (≈ 0.147 to 0.491 µM)

## COC(=O)NC[C@H]1CN(c2cc(F)c(N3CC4CCC(C3)O4)c(F)c2)C(=O)O1 [OBD-049]
[1]; [3]
  MIC: 0.25 to 1 µg/mL (≈ 0.629 to 2.52 µM)

## CS(=O)(=O)NC[C@H]1CN(c2ccc(N3CC4(COC4)C3)c(F)c2)C(=O)O1 [OTB-222, (R)—N-((3-(3-Fluoro-4-(2-oxa-6-azaspiro[3.3]heptan-6-yl)phenyl)-2-oxo-oxazolidin-5-yl)methyl)methanesulfonamide]
[1]; [3]
  MIC: 7.4 µg/mL (≈ 19.2 µM)

## O=C1O[C@@H](Cn2ccnn2)CN1c1ccc(N2[C@@H]3CC[C@H]2C[S+]([O-])C3)c(F)c1 (stereo partly drawn) [OTB-505, (5R)-5-((1H-1,2,3-Triazol-1-yl)methyl)-3-(3-fluoro-4-((1R,5S)-3-oxido-3-thia-8-azabicyclo[3.2.1]octan-8-yl)phenyl)oxazolidin-2-one]
[1]; H37RV
  MIC: 1.8 to 3.5 µg/mL (≈ 4.44 to 8.63 µM)

## CCCC(=O)NC[C@H]1CN(c2cc(F)c(N3CCCSCCC3)c(F)c2)C(=O)O1 [OBD-026, (S)—N-((3-(3,5-difluoro-4-(1,5-thiazocan-5-yl)phenyl)-2-oxooxazolidin-5-yl)methyl) butyramide]
[1]; [3]
  MIC: 0.4 µg/mL (≈ 0.936 µM)

## NC[C@H]1CN(c2cc(F)c(N3CC4(COC4)C3)c(F)c2)C(=O)O1 [OBD-062]
[1]; [3]
  MIC: 0.1 to 0.25 µg/mL (≈ 0.307 to 0.768 µM)

## O=C1O[C@@H](Cn2ccnn2)CN1c1ccc(N2[C@@H]3CC[C@H]2CSC3)c(F)c1 [OTB-504, (R)-5-((1H-1,2,3-Triazol-1-yl)methyl)-3-(4-((1R,5S)-3-thia-8-azabicyclo[3.2.1]octan-8-yl)-3-fluorophenyl)oxazolidin-2-one]
[1]; H37RV
  MIC: 0.5 to 0.7 µg/mL (≈ 1.28 to 1.8 µM)
